Source: publication PMC8861638, “Human iPSC-derived renal organoids engineered to report oxidative stress can predict drug-induced toxicity” (iScience, 2022)
“And” between values parts separate entries of the source, which are not always exact repeats. Equal entries are not always repeated. Where two headings read alike, the source gives them in different places. Values belong to the molecule of their own block, whether it stands above or below them.

How the values were obtained:
[1] = test system: HO1-mCherry-hiPSC-derived 3D renal organoids; assay: Blind-coded screen, mCherry fluorescence of HMOX1 reporter in 3D organoids
Description: (§1) H O 1-mCherry-hiPSC renal organoids (both flat and 3D) were incubated in a 4-fold dilution series of each compound for either 24 h or 72 h. Data on reporter expression are shown graphically in Figure 5.
(§2) A four-fold dilution series of each blinded compound (lyophilized, obtained from the Gothenburg authors) was prepared and HO1-mCherry-hiPSC-derived renal organoids (flat and 3D) were incubated in these dilutions for either 24h or 72h (Figure 5). A no-treatment control was included for each compound, time-point and organoid type (flat or 3D). 24h flat organoids were cultured in 4 x wells of a 24-well plate; 72h flat organoids in wells of a 96-well plate and 3D organoids on transwell inserts.
(§3) Fluorescence measurements were taken after 24h or 72h. Each live organoid was imaged either 5 times with 4 replicates (flat organoids, 24h), once with 10 replicates (flat organoids, 72h), once with 3 replicates (3D organoids, 24h) or 3 times with 3 replicates (3D organoids, 72h). Organoids were imaged using a Zeiss Axiovert microscope with Axiovision software. All images used for fluorescence intensity analysis were taken with identical exposures and settings. All images were analysed using ImageJ. The total fluorescence intensity of the image was multiplied by the total area with a signal between 600 (lower threshold) and 4096 (higher threshold), where 0 is completely black and 4096 is completely white. Thus, only signal above a certain threshold is measured in order to discount very dark areas with no cells.
(§4) In graphs, a single star indicates a p value of the null hypothesis being true of less than 0.05, two stars a p value of less than 0.01 and 3 stars a p value of less than 0.001. Calculation of the overall performance of the assay (in the Discussion section) was performed by calculating the Wilson Score Interval method ([Newcombe, 1998]).

[2] = test system: HO1-mCherry-hiPSC-derived flat renal organoids; assay: Blind-coded screen, mCherry fluorescence of HMOX1 reporter in flat organoids
Description: as §1, §2, §3, §4

[3] = test system: hiPSC-derived renal organoids; type: cell-based, human
Source text: We also stained drug-treated organoids for HMOX1 together with LTL and COL IV (Figure S3A), or JAG1 (Figure S3B), to test whether the response is localized to a specific cell type in the organoid. […] The general increase in HMOX1 expression in response to the toxic drugs, rather than specific response in proximal tubular cells, the primary site of toxicity of both drugs, could be due to the availability of the drug to all cell types of the organoid through the media in contrast to what happens in vivo where these drugs filter through the glomeruli then specifically accumulate inside the proximal tubular cells, through apical uptake pathways, where most of their toxic effect is seen.
The culture medium was aspirated, cells washed once in PBS, then fixed in 4% PFA in PBS for 15 minutes at room temperature, followed by three PBS washes of 3 min each. Cells were permeabilised and blocked for 1 hour (2% BSA, 0.3% Triton x100 in PBS). Cells were washed in PBS and incubated with primary antibodies overnight at 4 °C. Cells were washed in PBS (3x, 15 min) and incubated with secondary antibodies for 2 hrs at room temperature. Cells were washed in PBS (3x, 15 minutes) before imaging in PBS in the wells. Images were taken using a Zeiss Axiovert fluorescence microscope. […]

[4] = test system: flat and 3D HO1-mCherry-hiPSC-derived organoids; assay: HMOX1 qPCR in the blind-coded screen, flat and 3D organoids, 24h; type: cell-based, human; details: highest concentration 384µM
Description: A one-way ANOVA on repeated measures was performed. […]
mCherry insertion without hydrogen peroxide treatment. B) Single mCherry-positive cells were sorted into each well of 96-well plates as shown in the right panel to isolate clonal populations. Negative (wild type) cells are shown in the left panel. C) Diagram of the primers designed for verifying cassette insertion into the hiPSC genome. D) PCR products using primer pair 1 and 4 shown in C) - endogenous […]
Figure S5. HMOX1 expression in flat and 3D HO1-mCherry-hiPSC-derived flat and 3D organoids by qPCR fold-change analysis, Related to Figure 6.
HMOX1 expression fold-change compared to vehicle control in flat (white) and 3D […]

[5] = test system: hiPSC-derived flat renal organoids; assay: RNA-seq of wild-type hiPSC-derived flat renal organoids treated with gentamicin for 24 h; type: cell-based, human
Source text: Although some transporters were more strongly expressed in the 3D organoids, the presence of Megalin and Cubulin in the flat organoids, combined with their increased suitability for high-throughput analyses, led us to adopt this form of organoid to identify a potential reporter for toxic insults in renal organoids. hiPSCs were differentiated into flat renal organoids, and their renal identity was verified by confirming expression of common renal markers (as described above and in the Methods section). We treated these flat renal organoids for 24 h with the known nephrotoxicant, gentamicin ([Regec et al., 1986], [1989]; [El Mouedden et al., 2000]), at 1 or 4 mg/mL, leaving some as vehicle-only controls (3 separate organoids per condition). Gentamicin was chosen based on the presence of Megalin and Cubulin in these organoids because they are the main endocytic receptors involved in gentamicin uptake into proximal tubule cells ([Schmitz et al., 2002]) and would be expected to be necessary for a realistic toxic response. The transcriptomes of renal organoids in these three conditions were compared using RNA-seq analyses.
In contrast, treatment with 4 mg/mL gentamicin caused the expression of 2,221 genes to increase and that of 1770 to decrease. Among the transcripts showing increased expression was KIM-1 (log fold-change: 1.67; FDR-corrected p = 0.03), a biomarker commonly associated with renal tubular necrosis (Table S1).
RNA-seq, and trimming, filtering and normalization of raw data, was performed by Edinburgh Genomics. 1 μg of total RNA/sample was used for sequencing library preparation using an Illumina TruSeq stranded mRNA kit. Sequencing was performed using a Novaseq S1 50 Paired-end run to produce 50–64 million read-pairs per sample. Reads were trimmed using Cutadapt and were aligned to the Homo sapiens reference genome (GRCh38; from Ensembl) using STAR. […] Reads were assigned to features of type ‘exon’ in the input annotation grouped by gene_id in the reference genome using Feature Counts. […] Reads were normalised using the weighted trimmed mean of M-values method. […]

[6] = test system: HO1-mCherry-hiPSC-derived flat renal organoids; assay: Verification of reporter response in flat organoids to known nephrotoxicants (fluorescence, qPCR); type: cell-based, human; details: increasing amounts of compound
Description: Total RNA was isolated from organoids using the Qiagen RNeasy mini kit. Flat organoids were dissociated and processed as per the kit protocol. 3D organoids were lysed using the lysis buffer provided in the kit and then passed through a needle to fully dissociate before continuing with the kit protocol. RNA was stored at −80 °C until use. cDNA for qPCR was prepared using 2μg RNA and cDNA for RT-PCR was prepared using 1μg of RNA. All cDNA was quality-controlled by PCR using intron-spanning primers for β-actin on cDNA, prepared with or without reverse transcriptase (primers in Table S4). RT-PCRs for OAT1 (SLC22A6) and OCT2 (SLC22A2) were carried out in multiplex reactions with primers for β-actin as loading controls (primers in Table S4). qPCRs on undifferentiated and flat organoids for HMOX1 with HPRT1 as internal control were performed using TaqMan reagents as per published protocols (Applied Biosystems, assay nos. in Table S4). For qPCRs in the blind-coded screen, quality-controlled cDNA was provided by the Edinburgh authors to the Gothenburg authors. […] The reaction was prepared via Beckman NX and measured on Applied Biosystems QuantStudio 7 Real-Time PCR System.Technical triplicates served to calculate CT mean for each gene. The ΔCT between the target gene and the mean CT of the two reference genes was calculated for each biological replicate. […]

[7] = test system: undifferentiated HO1-mCherry-hiPSCs; details: 0, 125, or 250 μM for 24 h
Description: RNA was stored at −80 °C until use. cDNA for qPCR was prepared using 2μg RNA and cDNA for RT-PCR was prepared using 1μg of RNA. […] 12 ng of cDNA was utilized for each qPCR reaction. TaqMan gene expression assays (Applied Biosystems, TaqMan Gene Expression FAST Master Mix) were performed on HMOX1 and house-keeping genes HPRT and RPLP0. The reaction was prepared via Beckman NX and measured on Applied Biosystems QuantStudio 7 Real-Time PCR System.Technical triplicates served to calculate CT mean for each gene. The ΔCT between the target gene and the mean CT of the two reference genes was calculated for each biological replicate. The mean ΔCT of biological triplicates was normalized to untreated sample resulting in 2^ΔΔCT. […] A one-way ANOVA on repeated measures was performed. Significant fold-change was established by Dunnett's multiple comparisons test.

[8] = 3D organoids, 24 h and 72 h, 4-fold dilution series
[9] = flat organoids, 24 h and 72 h, 4-fold dilution series

- Reporter fluorescence response compared to vehicle control ([1]; 3D organoids, 24 h): showed a response after 24 h treatment
- Reporter fluorescence response compared to vehicle control ([1]; 3D organoids, 72 h): not after 72 h
- Reporter fluorescence response compared to vehicle control ([2]; flat organoids, 24 h): no significant response
Structure (SMILES): Nc1ccn(C[C@@H](CO)OCP(=O)(O)O)c(=O)n1 [Cidofovir]
- Prediction of toxicity by increase in fluorescence intensity ([1]; 3D 24h): Y
- Prediction of toxicity by increase in fluorescence intensity ([1]; 3D 72h): N
- Prediction of toxicity by increase in fluorescence intensity ([2]; Flat 24h): N
- Prediction of toxicity by increase in fluorescence intensity ([2]; Flat 72h): Y
- Reporter fluorescence response compared to vehicle control ([2]; flat organoids, 72 h): elicited a response at even the lowest concentration tested

Structure (SMILES): N.N.[Cl][Pt][Cl] [Cisplatin]
- HMOX1 expression by immunostaining [3]: HMOX1 expression increased
- Reporter fluorescence response compared to vehicle control [1]: significant increase in fluorescence
- Tubular structure of treated organoids [1]: distinct loss of tubular structure
- Cell death (no cDNA obtained) [4]: massive cell death
- Reporter fluorescence response compared to vehicle control [2]: significant increase in fluorescence

Structure (SMILES): C[C@@H]1C[C@H]2[C@@H]3CCC4=CC(=O)C=C[C@]4(C)[C@@]3(F)[C@@H](O)C[C@]2(C)[C@@]1(O)C(=O)CO [Dexamethasone]
- Prediction of toxicity by increase in fluorescence intensity ([1]; 3D 24h): N
- Prediction of toxicity by increase in fluorescence intensity ([1]; 3D 72h): N
- Prediction of toxicity, combination of 24 and 72 h (Boolean OR) ([1]; 3D organoids): did not predict toxicity
- Reporter fluorescence response compared to vehicle control [1, 8]: none of the concentrations produced a signal statistically different
- Prediction of toxicity by increase in fluorescence intensity ([2]; Flat 24h): N
- Prediction of toxicity by increase in fluorescence intensity ([2]; Flat 72h): N
- Reporter fluorescence response compared to vehicle control [2, 9]: none of the concentrations produced a signal statistically different

- HMOX1 expression by immunostaining ([3]; human): HMOX1 expression increased
- Log2FC HMOX1 ([5]; 4 mg/mL vs control, 24 h): 6.552 and 6.55
- Expression of CLU in RNA-seq ([5]; data not shown): not up-regulated
- Expression of NGAL in RNA-seq ([5]; data not shown): downregulated
- Tubular structure of treated organoids [1]: maintained their tubular structures
- Low concentration to which organoids responded (fluorescence) ([1]; human, 24 h): 6 µM
- Low concentration to which organoids responded (fluorescence) ([2]; human, 24 h): 2 4 μM
Structure (SMILES): CNC(C)C1CCC(N)C(OC2C(N)CC(N)C(OC3OCC(C)(O)C(NC)C3O)C2O)O1 (stereo not drawn) [Gentamicin]
- Prediction of toxicity by increase in fluorescence intensity [1]: Y
- mCherry fluorescence intensity (fold-change relative to vehicle control) [6]: increased in a dose-dependent manner

Structure (SMILES): O=P1(NCCCl)OCCCN1CCCl (stereo not drawn) [Ifosfamide]
- Prediction of toxicity by increase in fluorescence intensity ([1]; 3D 24h): Y
- Prediction of toxicity by increase in fluorescence intensity ([1]; 3D 72h): Y
- Reporter fluorescence response compared to vehicle control [1, 8]: significant fluorescence increase
- Prediction of toxicity by increase in fluorescence intensity ([2]; Flat 24h): Y
- Prediction of toxicity by increase in fluorescence intensity ([2]; Flat 72h): Y
- Reporter fluorescence response compared to vehicle control [2, 9]: significant fluorescence increase

Structure (SMILES): CC(C(=O)O)c1cccc(C(=O)c2ccccc2)c1 (stereo not drawn) [Ketoprofen]
- Prediction of toxicity by increase in fluorescence intensity ([1]; 3D 24h): N
- Prediction of toxicity by increase in fluorescence intensity ([1]; 3D 72h): N
- Reporter fluorescence response compared to vehicle control ([1]; 3D organoids, 72 h): only at the highest concentration after 72 h
- Prediction of toxicity by increase in fluorescence intensity ([2]; Flat 24h): Y
- Prediction of toxicity by increase in fluorescence intensity ([2]; Flat 72h): Y
- Reporter fluorescence response compared to vehicle control [2, 9]: significant response in the flat cultures at the two highest concentrations

Structure (SMILES): COc1ccc(C[C@H](N)C(=O)N[C@H]2[C@@H](O)[C@H](n3cnc4c(N(C)C)ncnc43)O[C@@H]2CO)cc1 [Puromycin]
- Reporter fluorescence response compared to vehicle control ([1]; human): significant rise in fluorescence after both 24 and 72 h
- Reporter fluorescence response compared to vehicle control ([2]; human): significant rise in fluorescence after both 24 and 72 h

Structure (SMILES): OO [hydrogen peroxide]
- HMOX1 transcripts by qPCR [7]: increase in HMOX1 transcripts
- mCherry fluorescence [7]: increased in a dose-dependent manner
